These results are taken from PMC9405466, “Mechanistic Insight into the Enzymatic Inhibition of β-Amyrin against Mycobacterial Rv1636: In Silico and In Vitro Approaches” (Biology, 2022).

What is called Km is the substrate concentration at which the rate is half of its maximum. Broadly, the kcat is the number of substrate molecules converted per active site and unit of time at saturation.

In series [1] the target is T1, Rv1636 (Mycobacterium tuberculosis, UniProt P9WFC9). Nature of the series: isothermal titration calorimetry (VP-ITC), one-site model. It counts as binding. The conditions noted are these: read-out: Ka1 (converted). An excerpt: isothermal titration calorimetry (VP-ITC), one-site model on Rv1636
T1 sequence (P9WFC9 whole entry, looked up): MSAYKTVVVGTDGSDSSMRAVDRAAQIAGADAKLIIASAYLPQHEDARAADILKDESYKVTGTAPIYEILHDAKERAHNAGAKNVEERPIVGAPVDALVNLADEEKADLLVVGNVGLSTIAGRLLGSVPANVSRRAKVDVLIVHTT
For orientation: ITC needs no label: the signal is the heat of the interaction.

In series [2] the target is T1, Rv1636. Nature of the series: malachite green ATPase inhibition assay. The class given is biochemical. Particulars: ATP as substrate; TMD buffer pH 8.0, 10 mM MgCl2.
The test system of series [3] is Nc1ncnc2c1ncn2[C@@H]1O[C@H](COP(=O)(O)OP(=O)(O)OP(=O)(O)O)[C@@H](O)[C@H]1O. The series can be described thus: purified protein. Particulars: 50 mM Tris pH 8.0, 10 mM MgCl2, 1 mM DTT, 0-80 µM ATP, 5 µM Rv1636, 1 h.

`CC1(C)CC[C@]2(C)CC[C@]3(C)C(=CC[C@@H]4[C@@]5(C)CC[C@H](O)C(C)(C)[C@@H]5CC[C@]43C)[C@@H]2C1` [β-Amyrin]: the Kd on Rv1636 [1] is 17.8 µM. Moreover, the ATPase activity result at Rv1636 [2] is “in the presence of an increasing concentration of β-Amyrin, the result showed a consistent reduction”.
Turning to “Rv1636 (Mycobacterium tuberculosis H37Rv)”, in series [3], the Km came out at 5.187 ± 0.281 µM and the kcat worked out at 0.000883 ± 1.7e-05 s⁻¹.
